≈ marks a conversion by molar mass, not a printed value. Like-named read-outs stand apart in the source and are kept apart here.
Assays:
[1] = Physicochemical properties of the TKIs (solubility, log P, log D, pKa; Tables 2, 11, 13); conditions: for logP: n-octanol/water, Table 2; for solubility: pH 7, aqueous buffer
Method: Tyrosine kinase inhibitors were incorporated into PLGA or PLA implants by extrusion. The TKIs were milled with the polymers at certain ratios then extruded into filaments. These filaments were subsequently cut into implants weighing approximately 1 mg. Several TKIs were formulated in the PLGA and PLA implants based on their potencies and physicochemical properties as shown in Table 2.
We developed a new (oil in water) process for making active agent microspheres (FIG. 23). This new process for making microspheres can be used with any small molecule which is slightly soluble in water and organic solvents and which is able to preferentially crystallize in organic solvents. Such small molecules include those which have a Log P greater than or equal to four. P, the partition coefficient, is defined as the ratio of the equilibrium concentration (Ci) of a dissolved substance in a two-phase system consisting of two largely immiscible solvents, for example the ratio of n-octanol (Co) to water (Cw).
Using our new process, each of the five different TKIs shown by FIG. 24 were separately incorporated into PLGA biodegradable microspheres. In FIG. 24 the five TKIs shown are identified as follows: first (uppermost) row: 206639 and 205558; second (middle) row: 206320 and 206316, and; bottom row: 206784. The properties of these five TKIs are set forth in Table 13, where “DSC” means differential scanning calorimetry and endotherms are noted in degrees Celsius (used to determine presence of TKI crystals).

[2] = In vivo pharmacokinetics of AGN 202314 subconjunctival PLGA implants and PLA microspheres; conditions: rabbit; for concentration at 8 day: Day 8
Method: Subconjunctival implants, PLGA (1200 μg AGN 202314 dose; three implants) and PLA microspheres (300 μg AGN 202314) were implanted subconjunctivally. At days 8, 15, 31 and 61 rabbits were sacrificed and the vitreous humor, lens, aqueous humor and plasma assayed for AGN 202314.

[3] = In vivo pharmacokinetics of AGN 202314 intravitreal PLGA implants; parameters: species or system rabbit
Method: Implants containing AGN 202314 were placed intravitreally or subconjunctivally in an eye. The implants released AGN 202314 in-vitro over a 14 day period (FIG. 3.). The intent of this study was to achieve an intravitreal in-vivo/in-vitro correlation with the intravitreal implants and assess the feasibility of periocular delivery.
Intravitreal Implants, PLGA (400 μg AGN 202314 dose, 1 mg total implant weight), were implanted by surgical incision into the mid vitreous of albino rabbits. At days 8, 15, 31 and 61 rabbits were sacrificed and the vitreous humor, lens, aqueous humor and plasma assayed for AGN 202314.

[4] = In vitro TKI release from PLGA/PLA implants (Example 2); format: physicochemical; conditions: for period of in-vitro release from implants: implants in release medium, 37° C.
Method: TKI release from the implants was assessed in vitro. Implants were placed into vials containing release medium and shaken at 37° C. At the appropriate time points a sample was taken from the release medium for analysis and the medium totally replaced to maintain sink conditions. Drug in the sample was assayed by HPLC and the cumulative percent release of drug from the implant noted as a function of time. The in vitro release profiles of AGN 200954, AGN 202314, AGN 201635 and AGN 202564 are depicted in FIGS. 3 through 10, respectively.

in vivo = conditions: female, albino, rabbit
Method: (§1) Vitreous humor samples (n=4 eyes per timepoint) were collected at 0.5, 1, 2, 4, 8, and 12 hr postdose. The TKI concentration in the vitreous humor was determined using a liquid chromatography tandem mass spectrometry method (LC-MS/MS).

[5] = Stability of AGN 201634 standard solution in DI water/acetonitrile at 4° C.; format: physicochemical; conditions: DI water/acetonitrile (75%/25%) at 4° C.
Method: The stability of AGN 201634 standard solution in deionized water/acetonitrile (75%/25%) was examined at 4° C., and the results are summarized in the following table. The concentration of standard solution was from 0.0695 μg/mL to 8.693 μg/mL, and was analyzed on day 14, 21, and 35.
Stability of AGN 201634 standard solution of various concentrations in DI water/acetonitrile (75%/25%) at 4° C. (Table 9).

[6] = Stability of TKI in Formulations 3 and 4 in media of pH 6.0, 7.4 or 8.5; format: physicochemical
Method: To examine the stability of TKI in formulation, Formulations 3 and 4 were prepared to various concentration in a medium of pH 6.0, 7.4 or 8.5, respectively, and subjected to an incubation condition of either 7 days under ambient condition or 14 days at 4° C., and the results are summarized in the following table.

[7] = In vitro release of AGN 201634 from PDLG/PDL implants in different media; format: physicochemical
Method: TKI release was examined for implants made from poly (D,L-lactide-co-glycolide) (PDLG) or poly (D,L-lactide) (PDL) in different media with or without addition of detergent at 37° C. in a shaking water bath.
TKI release was examined in various medium, including saline, phosphate buffer saline of pH 7.4, 50 mM bicarbonate buffer of pH 6.0±0.1 with 0.1% cetyltrimethylammonium bromide (CTAB), and 50 mM borate buffer of pH 8.5±0.1 with 0.5% sodium dodecyl sulfate (SDS) in a shaking water bath (Precision) at 37° C. Sample was incubated in 10 mL of medium, and was totally replaced with fresh medium at each sampling time. Drug concentration was determined by HPLC using a Waters 2690 Separation Module equipped with a Waters XTerra RP8 column (3.9×150 mm, 5 μm, equilibrated at ambient) and a Waters 996 photodiode array detector (set at 238 nm) using 0.1% acetic acid in acetonitrile/water (40/60 by volume) as the mobile phase under a flow rate of 1.2 mL/min. The column was equilibrated with mobile phase for at least 30 min before initiating any sample injection.
The DDS was incubated in a vial of either 40 or 20 mL, and 10 mL sample solution was replaced by same volume of fresh medium, respectively, at each sampling time. The release profiles in saline and PBS were obviously different. Less than 5% of TKI was released in saline during the first 70 days. In contrast, less than 5% of AGN 201634 was released at the first 3 weeks when DDS was incubated in PBS, the same as in saline, but more than 80% of AGN 201634 was released after 70 days. […] It seems that release medium plans an important role in the variation of release profile instead of incubation volume. Due to this slow and diverged release profile, the release profile of Formulation 2 was not performed since its formulation was based on the same polymer with a lower drug loading.
For F3, more than 50%, 45%, and 75% TKI was released at the first 3, 7, and 2 weeks, when DDS was incubated in a medium of pH 6.0 (with 0.1% CTAB), 7.4 (PBS) and 8.5 (with 0.5% SDS), respectively. […]

[8] = Intravitreal pharmacokinetics of TKIs in fluid compositions after a single intravitreal injection; conditions: female, albino, rabbit, vitreous humor, other: intravitreal injection
Method: as §1

[9] = Day 31, subconjunctival PLGA implants, 3 rods, total 1.2 mg AGN 202314
[10] = Day 61, subconjunctival PLGA implants, 3 rods, total 1.2 mg AGN 202314

## Cc1cccc2c1C(=CNc1ccc(CCN3CCCCC3)cc1)C(=O)N2 [AGN 202560]
[1]
  pKa: 9.65
  logP: 3.66
  solubility: 41 µg/mL (≈ 113 µM)

## CCN(CC)CCOc1ccc(NC=C2C(=O)Nc3cc(F)ccc32)cc1 [AGN 202314]
[2]; Day 15, subconjunctival PLGA implants, 3 rods, total 1.2 mg AGN 202314
  Retina AGN 202314 concentration: BLQ (BLQ: Retina and lens: <5 ng/g)
[2]; [9]
  Lens AGN 202314 concentration: BLQ (BLQ: Retina and lens: <5 ng/g)
  Retina AGN 202314 concentration: BLQ (BLQ: Retina and lens: <5 ng/g)
[2]; [10]
  Lens AGN 202314 concentration: BLQ (BLQ: Retina and lens: <5 ng/g)
  Retina AGN 202314 concentration: BLQ (BLQ: Retina and lens: <5 ng/g)
[2]; aqueous humor, other: subconjunctival implant, subconjunctival PLGA implants, 3 rods, total 1.2 mg AGN 202314, read-out: Aqueous Humor AGN 202314 concentration
  concentration at 8 day: 6.38 ng/mL
[2]; lens, other: subconjunctival implant, subconjunctival PLGA implants, 3 rods, total 1.2 mg AGN 202314, read-out: Lens AGN 202314 concentration
  concentration at 8 day: 229 ng/g
[2]; lens, other: subconjunctival implant, Day 15, subconjunctival PLGA implants, 3 rods, total 1.2 mg AGN 202314
  concentration at 15 day: 7.93 ng/g
[2]; retina, other: subconjunctival implant, subconjunctival PLGA implants, 3 rods, total 1.2 mg AGN 202314, read-out: Retina AGN 202314 concentration
  concentration at 8 day: 63.8 ng/g
[2]; subconjunctival implants and microspheres
  periocular delivery to the vitreous and retina: unsuccessful
[1]
  pKa: 9.68
  logP: 3.8
  solubility: 202 µg/mL (≈ 547 µM)
[3]; all time points (days 8, 15, 31, 61), implants in rabbit eye
  plasma levels: BLQ or extremely low
[3]; intravitreal PLGA implant, albino rabbit
  period of drug release in vivo: two
[4]; 1 mg Purac PLA implants
  period of in-vitro delivery from formulations: four
[4]; AGN 202314 implant
  period of drug release in vitro: two
[4]
  period of in-vitro release from implants: 14 days

## O=C1Nc2ccccc2C1=CNc1ccc(N2CCOCC2)cc1 [AGN 199659, 3-[(4-Morpholin-4-yl-phenylamino)-methylene]-1,3-dihydro-indol-2-one]
In vivo
  Vd: 0.000255 L
  clearance: 0.00387 mL/min
  half-life: 72.6 min

## O=C(O)CC1O/C(=C2/C(=O)Nc3cc(F)ccc32)c2ccccc21 (centres unmarked) [AGN 201634]
[1]
  logP: 1.25
  solubility: 88 µg/mL (≈ 271 µM)
[5]
  stability of solution: more than 35 days
[6]; 4° C.
  stability of DDS solution in various pH medium: > 14 days
[6]; ambient condition
  stability of DDS solution in various pH medium: more than 7 days
[7]; medium of pH 6.0
  duration of controlled release in vitro: more than 5 months
[7]; medium of pH 7.4
  duration of controlled release in vitro: more than 5 months
[7]; medium of pH 8.5
  duration of controlled release in vitro: more than 4 weeks

## Nc1ccc2c(c1)C(=C1C(=O)Nc3ccc(Cl)cc31)OC2 [AGN 200954, 3-(6-Amino-3H-isobenzofuran-1-ylidene)-5-chloro-1,3-dihydro-indol-2-one]
In vivo
  clearance: 0.00433 mL/min
[1]
  logP: 2.21
  solubility: 0.3 µg/mL (≈ 1 µM)
[8]
  Vd: 0.000705 L
  half-life: 155 min
[4]
  period of in-vitro release from implants: 180 days
